The results in this text go back to publication PMC5315633 (ACS chemical biology, 2016).

Test [1] deals with T1, Psf3 (Pseudomonas syringae, UniProt I6R485).
T1 sequence (I6R485 1-295): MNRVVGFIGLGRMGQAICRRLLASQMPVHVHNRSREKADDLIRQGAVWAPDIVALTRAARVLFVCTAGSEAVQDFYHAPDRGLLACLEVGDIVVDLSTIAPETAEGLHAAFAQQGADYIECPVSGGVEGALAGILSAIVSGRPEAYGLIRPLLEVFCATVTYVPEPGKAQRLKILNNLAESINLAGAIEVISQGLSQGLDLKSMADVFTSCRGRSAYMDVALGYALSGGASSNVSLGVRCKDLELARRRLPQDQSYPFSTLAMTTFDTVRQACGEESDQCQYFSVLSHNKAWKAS
The test can be described thus: NADPH consumption at […] nm, Michaelis-Menten fit. The note with it: 250 uM NADPH (saturating), 50 mM HEPES pH 7.5. It is filed as biochemical.

Test [2] concerns the target T1, Psf3. The experiment in a line: […] NMR of reverse. It is filed as biochemical. Conditions: 2 mM NADP+, 1 mM (S)-2-HPP, pH 7.5, room temperature.

`CC(=O)CP(=O)(O)O` [2-OPP]: the KM result at Psf3 [1] was “Kinetic parameters, with respect to 2-OPP and determined by monitoring the consumption of NADPH”.

In the case of `C[C@H](O)CP(=O)(O)O` [(S)-2-HPP], the “31P NMR of reverse (oxidation) reaction” value on Psf3 [2] is on record as “reaction with (S)-2-HPP resulted in a new peak that is consistent with 2-OPP”.
